Assay results from patent US20130196971A1, “FATTY ACID SYNTHASE INHIBITORS” (priority 2010, published 2013).
pIC50: −log10 of the molar value.

These compounds were tested against FAS (Homo sapiens, UniProt P49327) (assay: FAS Assay (Assay #1 residual NADPH detection or Assay #2 CoA detection with CPM dye)). Conditions: FAS inhibition, measured through Assay #1 or Assay #2; one experiment or average of multiple experiments.
Type: biochemical
Protocol: FAS activity was measured through one of the two following assays.
Inhibition of FAS activity can be measured based on the detection of residual NADPH substrate after the FAS assay is quenched. This assay is run as a 10 μL endpoint assay in 384-well format, where the reaction contains 20 μM malonyl-CoA, 2 μM acetyl-CoA, 30 μM NADPH and 40 nM FAS in 50 mM sodium phosphate, pH 7.0. The assay is run by sequentially dispensing 5 μl of a malonyl-CoA solution, then enzyme solution (containing the acetyl-CoA, and NADPH) into a black, low volume assay plate (Greiner 784076) pre-dispensed with 100 nL compound solutions in DMSO. The reaction is incubated at ambient temperature for 60 minutes, then quenched with 5 μL of a developing solution composed of 90 μM resazurin, 0.3 IU/ml diaphorase in 50 mM sodium phosphate, pH 7.0. The developed reaction is read on a Molecular Devices Analyst or Acquest (or equivalent) plate reader using a 530 nm excitation wavelength filter, a 580 nm emission filter, and 561 nm dichroic filter. The test compounds are prepared in neat DMSO at a concentration of 10 mM. For inhibition curves, compounds are diluted using a three fold serial dilution and tested at 11 concentrations (e.g. 25 μM-0.42 nM). Curves are analysed using ActivityBase and XLfit, and results are expressed as pIC50 values.
Inhibition of FAS can also be quantified based on the detection of the CoA products with a thio-reactive coumarin dye. This assay is run as a 10 μL endpoint assay in 384-well format, where the reaction contains 20 μM malonyl-CoA, 20 μM acetyl-CoA, 40 μM NADPH and 2 nM FAS in 50 mM sodium phosphate, pH 7.0, and 0.04% Tween-20. The assay is run by adding 5 μL enzyme solution to a black, low volume assay plate (Greiner 784076) pre-dispensed with 100 nl compound solutions in DMSO. After 30 minutes, 5 μL substrate is added, and the reaction incubated at ambient temperature for an additional 60 minutes. The reaction is then quenched with 10 μL of 6M guanidine-HCl containing 50 μM CPM (7-diethylamino-3-(4′-maleimidylphenyl)-4-methylcoumarin (CPM; thio-reactive dye), and incubated for 30 minutes. The plate is read on an Envision (PerkinElmer) or equivalent plate reader using a 380 nm excitation wavelength filter, and a 486 nm emission filter. Data fitting and compound preparations are done as described above.

Sequence of FAS (P49327 whole entry): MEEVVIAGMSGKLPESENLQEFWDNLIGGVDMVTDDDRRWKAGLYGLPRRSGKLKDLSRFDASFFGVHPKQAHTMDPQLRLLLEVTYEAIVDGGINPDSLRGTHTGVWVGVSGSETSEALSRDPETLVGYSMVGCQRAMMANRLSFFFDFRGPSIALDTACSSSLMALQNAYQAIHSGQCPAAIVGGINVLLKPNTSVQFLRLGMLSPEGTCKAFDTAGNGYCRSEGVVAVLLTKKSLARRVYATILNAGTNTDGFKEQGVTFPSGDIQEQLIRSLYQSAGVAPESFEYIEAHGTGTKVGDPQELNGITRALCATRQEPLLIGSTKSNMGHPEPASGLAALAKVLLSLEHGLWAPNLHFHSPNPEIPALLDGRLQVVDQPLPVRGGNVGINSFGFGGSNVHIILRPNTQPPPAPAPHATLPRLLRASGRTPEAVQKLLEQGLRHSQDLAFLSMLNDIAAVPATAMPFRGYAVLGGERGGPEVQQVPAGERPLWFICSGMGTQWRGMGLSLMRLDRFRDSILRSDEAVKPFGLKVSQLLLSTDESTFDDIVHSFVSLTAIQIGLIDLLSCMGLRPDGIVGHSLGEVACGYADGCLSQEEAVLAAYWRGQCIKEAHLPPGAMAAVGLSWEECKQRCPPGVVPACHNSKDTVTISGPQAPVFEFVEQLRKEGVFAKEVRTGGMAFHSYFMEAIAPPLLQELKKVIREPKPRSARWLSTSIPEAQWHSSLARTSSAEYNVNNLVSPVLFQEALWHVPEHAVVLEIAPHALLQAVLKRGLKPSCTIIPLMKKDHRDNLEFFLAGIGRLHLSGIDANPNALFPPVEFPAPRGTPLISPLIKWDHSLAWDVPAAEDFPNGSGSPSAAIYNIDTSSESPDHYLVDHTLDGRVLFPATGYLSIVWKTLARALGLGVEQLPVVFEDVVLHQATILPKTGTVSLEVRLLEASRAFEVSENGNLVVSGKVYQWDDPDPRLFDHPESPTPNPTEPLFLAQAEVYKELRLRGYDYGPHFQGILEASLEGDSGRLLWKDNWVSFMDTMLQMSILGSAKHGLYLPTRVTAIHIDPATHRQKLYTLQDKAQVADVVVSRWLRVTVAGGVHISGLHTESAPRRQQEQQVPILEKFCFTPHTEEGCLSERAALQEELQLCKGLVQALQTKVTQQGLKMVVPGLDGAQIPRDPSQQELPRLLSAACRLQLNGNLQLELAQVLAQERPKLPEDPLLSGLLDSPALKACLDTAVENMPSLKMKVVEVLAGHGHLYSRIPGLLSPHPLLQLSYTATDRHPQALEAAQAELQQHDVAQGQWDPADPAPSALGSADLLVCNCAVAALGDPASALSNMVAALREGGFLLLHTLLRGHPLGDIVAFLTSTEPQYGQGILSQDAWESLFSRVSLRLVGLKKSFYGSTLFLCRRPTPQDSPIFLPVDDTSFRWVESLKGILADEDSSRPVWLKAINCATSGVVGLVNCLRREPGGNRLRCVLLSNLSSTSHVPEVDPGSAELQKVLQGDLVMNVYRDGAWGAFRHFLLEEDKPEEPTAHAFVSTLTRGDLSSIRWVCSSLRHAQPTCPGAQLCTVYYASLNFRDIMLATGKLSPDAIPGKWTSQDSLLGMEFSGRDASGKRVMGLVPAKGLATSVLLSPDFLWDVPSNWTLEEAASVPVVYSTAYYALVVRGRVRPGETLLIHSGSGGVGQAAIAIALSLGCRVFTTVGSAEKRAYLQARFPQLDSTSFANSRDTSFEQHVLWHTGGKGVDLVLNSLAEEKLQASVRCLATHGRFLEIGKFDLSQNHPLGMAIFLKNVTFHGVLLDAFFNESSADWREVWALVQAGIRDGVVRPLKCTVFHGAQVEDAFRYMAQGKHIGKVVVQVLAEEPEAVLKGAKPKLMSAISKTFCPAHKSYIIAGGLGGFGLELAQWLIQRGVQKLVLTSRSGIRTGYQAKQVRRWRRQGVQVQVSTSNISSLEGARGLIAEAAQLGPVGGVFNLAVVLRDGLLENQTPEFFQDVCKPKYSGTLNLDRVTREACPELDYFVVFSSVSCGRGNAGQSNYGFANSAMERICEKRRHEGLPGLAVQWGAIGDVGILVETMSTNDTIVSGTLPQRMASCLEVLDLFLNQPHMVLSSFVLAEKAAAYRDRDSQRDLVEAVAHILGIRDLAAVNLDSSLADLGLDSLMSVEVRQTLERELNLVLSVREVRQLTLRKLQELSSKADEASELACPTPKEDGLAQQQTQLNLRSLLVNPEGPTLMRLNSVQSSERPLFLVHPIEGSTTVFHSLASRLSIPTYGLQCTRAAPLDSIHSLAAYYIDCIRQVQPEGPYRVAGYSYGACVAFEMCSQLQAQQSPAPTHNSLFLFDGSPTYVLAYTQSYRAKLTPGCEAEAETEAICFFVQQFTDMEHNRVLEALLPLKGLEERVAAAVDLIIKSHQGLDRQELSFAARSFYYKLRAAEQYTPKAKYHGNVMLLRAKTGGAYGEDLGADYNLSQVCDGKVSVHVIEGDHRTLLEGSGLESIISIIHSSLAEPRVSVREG

| Compound | pIC50 |
| --- | --- |
| Cn1ccc2cc(-c3ccc(-c4nncn4C[C@@H]4CCN(C(=O)C5CC5)C4)cc3)cnc21 [Example 73, 5-[4-(4-{[(3S)-1-(cyclopropylcarbonyl)-3-pyrrolidinyl]methyl}-4H-1,2,4-triazol-3-yl)phenyl]-1-methyl-1H-pyrrolo[2,3-b]pyridine] | 6.60 |
| Cc1nc(-c2ccc(-c3ccc(F)cc3)cc2)n(CC2CCN(C(=O)C3CC3)C2)c1C (stereo not drawn) [Example 41, 1-{[1-(cyclopropylcarbonyl)-3-pyrrolidinyl]methyl}-2-(4′-fluoro-4-biphenylyl)-4,5-dimethyl-1H-imidazole] | 5.82 |
| O=C(C1CC1)N1CC(Cn2cnnc2-c2ccc(-c3ccc4ncccc4c3)cc2F)C1 [Example 96, 6-[4-(4-{[1-(cyclopropylcarbonyl)-3-azetidinyl]methyl}-4H-1,2,4-triazol-3-yl)-3-fluorophenyl]quinoline] | 6.20 |
| Cc1nnc(-c2ccc(-c3ccc(Cl)cc3Cl)cc2)n1C[C@@H]1CCN(C(=O)C2CC2)C1 [Example 15, 4-{[(3S)-1-(cyclopropylcarbonyl)-3-pyrrolidinyl]methyl}-3-(2′,4′-dichloro-4-biphenylyl)-5-methyl-4H-1,2,4-triazole] | 6.22 |
| O=C(C1CC1)N1CC[C@@H](Cn2cnnc2-c2ccc(-c3cccc(-c4cc[nH]n4)c3)cc2F)C1 [Example 87, 4-{[(3S)-1-(cyclopropylcarbonyl)-3-pyrrolidinyl]methyl}-3-[3-fluoro-3′-(1H-pyrazol-5-yl)-4-biphenylyl]-4H-1,2,4-triazole] | 7.20 |
| COc1ccc(-c2ccc(-c3nnnn3C[C@@H]3CCN(C(=O)C4CC4)C3)cc2)c(Cl)c1 [Example 5, 5-[2′-chloro-4′-(methyloxy)-4-biphenylyl]-1-{[(3R)-1-(cyclopropylcarbonyl)-3-pyrrolidinyl]methyl}-1H-tetrazole] | 6.12 |
| COc1cc(-c2ccc(-c3nncn3C[C@@H]3CCN(C(=O)C4CC4)C3)c(F)c2)ccc1C [Example 98, 4-{[(3S)-1-(cyclopropylcarbonyl)-3-pyrrolidinyl]methyl}-3-[3-fluoro-4′-methyl-3′-(methyloxy)-4-biphenylyl]-4H-1,2,4-triazole] | 6.70 |

More lines, in order of rising pIC50, values ahead:

| pIC50 | Compound |
| --- | --- |
| 6.22 | Cc1cnc(-c2ccc(-c3ccc(Cl)cc3Cl)cc2)n1CC1CCN(C(=O)C2CC2)C1 (stereo not drawn) [Example 54, 1-{[1-(cyclopropylcarbonyl)-3-pyrrolidinyl]methyl}-2-(2′,4′-dichloro-4-biphenylyl)-5-methyl-1H-imidazole] |
| 6.72 | O=C(C1CC1)N1CC[C@@H](Cn2ccnc2-c2ccc(-c3ccccc3)cc2)C1 [Example 26, 2-(4-biphenylyl)-1-{[(3S)-1-(cyclopropylcarbonyl)-3-pyrrolidinyl]methyl}-1H-imidazole] |
| 7.40 | O=C(C1CC1)N1CC[C@@H](Cn2nncc2-c2ccc(-c3ccc4[nH]ncc4c3)cc2)C1 [Example 11, 5-[4-(1-{[(3R)-1-(cyclopropylcarbonyl)-3-pyrrolidinyl]methyl}-1H-1,2,3-triazol-5-yl)phenyl]-1H-indazole] |
| 7.64 | O=C(C1CC1)N1CC[C@@H](Cn2ccnc2-c2ccc(-c3ccc4occc4c3)cc2)C1 [Example 34, 2-[4-(1-benzofuran-5-yl)phenyl]-1-{[(3S)-1-(cyclopropylcarbonyl)-3-pyrrolidinyl]methyl}-1H-imidazole] |
| 7.89 | O=C(C1CC1)N1CC[C@@H](Cn2cnnc2-c2ccc(-c3cccc4[nH]ncc34)cc2)C1 [Example 67, 4-[4-(4-{[(3S)-1-(cyclopropylcarbonyl)-3-pyrrolidinyl]methyl}-4H-1,2,4-triazol-3-yl)phenyl]-1H-indazole] |
